The values below are quoted from earlier work in patent publication US9475888B2, “Non anti-coagulative glycosaminoglycans comprising repeating disaccharide unit and their medical use” (DILAFOR AB, priority 2011, dated 2016).

The conditions of series [1]: species not specified.
The subject of series [2] is protracted labor. The conditions noted are these: women receiving prophylaxis for deep venous thrombosis.
Series [3] concerns uterus. The conditions noted are these: Acta Obstetricia et Gynecologica, 2010; 89:147-150.

With Heparin, the “corresponding bioavailability (subcutaneous)” value in series [1] is reported as “about 10%”. Turning to dalteparin, the protracted labor entry in series [2] is given as “decrease”. Besides, in series [3], the “contractility of the uterus” value was “increase”.
